# Measured values reported in patent publication US20230365519A1, “CARBOXYLIC DIARYLTHIAZEPINEAMINES AND USES THEREOF” (Kures, Inc., priority 2020, published 2023).
# Test: Brain pharmacokinetics of tianeptine and its 5-carbon metabolite (7i) in mice
# Description: Experimental Protocol for PK Studies. […] Brain samples were collected from three mice at 0.08, 0.25, 0.5, 1, 2, 4, 8 and 24 h, homogenized using ice-cold phosphate buffer saline (pH 7.4), and stored below -70° C. until analysis. Total homogenate volume was three times the tissue weight. All samples were processed for analysis by protein precipitation using acetonitrile (ACN) and analyzed with a fit-for-purpose LC/MS/MS method (LLOQ - 1.01 ng/mL in brain). Pharmacokinetic parameters were calculated using the non-compartmental analysis tool of Phoenix WinNonlin® (Version 6.3).
# [1] = C57BL/6 mice, single injection of tianeptine 30 mg/kg i.p.
# [2] = mice, after tianeptine 30 mg/kg i.p., in words
smiles,measurement,setting,value
CN1c2ccccc2C(NCCCCC(=O)O)c2ccc(Cl)cc2S1(=O)=O.Cl (stereo not drawn) [Compound 7i],AUClast,[1],5963 ng·h/g
same,CL,[1],78 mL/min/kg
same,Tmax,[1],0.5 h
same,T½,[1],2.33 h
same,brain exposure (as measured by AUC) compared to the parent compound (tianeptine),[2],greater brain exposure
same,half-life compared to the parent compound (tianeptine),[2],significantly longer half-life
